Entries after “also recorded” stand apart in the source; their conditions may differ. Where no end group is shown, it is not given here.
What was measured:
Erwinia carotovora [1] = assay: In planta assay for resistance to Erwinia soft rot (syringe or sandpaper inoculation of tobacco leaves); type: in vivo; settings: mature transplastomic tobacco leaves; for necrosis at the site of inoculation: sand paper method, up to 10^8 E. carotovora cells; for necrosis surrounding the point of inoculation: syringe method, 10^8, 10^6, 10^4 and 10^2 E. carotovora cells, peptide expressed in chloroplasts
[2] = test system: tobacco mosaic virus (TMV); type: in vivo; settings: transplastomic tobacco plants, within 20 days after inoculation
[3] = test system: gram-positive or gram-negative bacteria; settings: cited from earlier work
Erwinia carotovora [4] = assay: Erwinia carotovora inoculation and bacterial count in tobacco leaves; type: in vivo; settings: plants inoculated with 1.0×10^5 cfu/ml E. carotovora
Procedure: The leaves of untransformed and transplastomic tobacco plants were inoculated with 20 μl of bacterial suspension (1.0×10^5 cfu/ml) through a syringe. Each leaf disc (0.8 cm diameter) was punched off from the inoculated area of an individual plant after 0, 1 or 3 days of incubation. The bacterial population inside the leaf was calculated as follows. Leaf tissue was ground in 100 μl sterilized water in a microcentrifuge tube. The suspension was serially diluted with sterilized water and was then plated on nutrient broth agar plates (Difco). Colonies were counted after one day of incubation at 25° C.

[5] = test system: T-tropic and M-tropic strains of HIV-1; settings: human CD4+ lymphocytes, in vitro; cited from earlier work
[6] = test system: vegetative B. anthracis cells; settings: cited from earlier work
HIV-1 = settings: organ-like construct of human cervicovaginal tissue; cited from earlier work

Substance | necrosis at the site of inoculation (Erwinia carotovora [1]) | necrosis surrounding the point of inoculation (Erwinia carotovora [1]) | symptoms of TMV infection [2] | minimum inhibitory concentrations [3] | symptoms of necrosis (Erwinia carotovora [4]) | concentration that inhibits proviral DNA formation and protects from infection [5] | minimum effective concentration [6] | amount that prevents HIV-1 infection (HIV-1)
Protegrin-1 (RGGRLCYCRRRFCVCVGR; not fully specified (bridges); ends and bridges not checked; also: two disulfide bonds, pairing not given here) [PG1] | mild discoloration | no areas of necrosis | typical mosaic, necrosis and wrinkle symptoms; also recorded: not effective | 0.12 to 2 mg/L | no apparent symptoms of necrosis |  |  | 
Retrocyclin |  |  |  |  |  | 10 to 20 µg/mL |  | 
Retrocyclin-1 |  |  |  |  |  |  | < 1 µg/mL | 
Retrocyclin-101 [RC101] | no necrosis | no areas of necrosis | didn't show obvious symptoms of TMV infection; also recorded: resistant to TMV infection |  | no apparent symptoms of necrosis |  |  | 2 µg

Source: patent publication US20200040348A1, “CONTROL OF VIRAL AND BACTERIAL INFECTION BY ANTIMICROBIAL PEPTIDES RETROCYCLIN AND/OR PROTEGRIN EXPRESSED IN CHLOROPLASTS” (THE TRUSTEES OF THE UNIVERSITY OF PENNSYLVANIA, priority 2010, published 2020)
